Results published in PMC5218480 (PLoS ONE, 2017).

Tested on: MV-4-11 cells
Experiment: Gene expression microarray analysis (Affymetrix PrimeView) and GSEA
Type: cell-based, human
Parameters: RFU PODN (11730768_x_at) / Fold change /veh PODN (11730768_x_at) / RFU LINC00158 (11744669_a_at) / Fold change /veh LINC00158 (11744669_a_at) / RFU DUSP10 (11751237_a_at) / Fold change /veh DUSP10 (11751237_a_at) / RFU ID3 (11757404_x_at) / Fold change /veh ID3 (11757404_x_at) / RFU PLEKHG5 (11737974_s_at) / Fold change /veh PLEKHG5 (11737974_s_at) / RFU LRRC4B (11730491_at) / Fold change /veh LRRC4B (11730491_at) / RFU GIMAP4 (11747438_a_at) / Fold change /veh GIMAP4 (11747438_a_at) / RFU KRT8 (11758183_x_at) / Fold change /veh KRT8 (11758183_x_at) / RFU CNN1 (11734310_a_at) / Fold change /veh CNN1 (11734310_a_at) / RFU VPS37D (11726825_at) / Fold change /veh VPS37D (11726825_at) / RFU C10orf10 (11716522_x_at) / Fold change /veh C10orf10 (11716522_x_at) / RFU KIR2DL2 /// KIR2DL4 /// KIR2DL5A /// KIR2DL5B /// KIR2DS1 /// KIR2DS2 /// KIR2DS3 /// KIR2DS4 /// KIR3DL3 /// KIR3DL3 /// KIR3DS1 (11738374_at) / Fold change /veh KIR2DL2 /// KIR2DL4 /// KIR2DL5A /// KIR2DL5B /// KIR2DS1 /// KIR2DS2 /// KIR2DS3 /// KIR2DS4 /// KIR3DL3 /// KIR3DL3 /// KIR3DS1 (11738374_at) / RFU C1QL1 (11718748_at) / Fold change /veh C1QL1 (11718748_at) / RFU TMPRSS4 (11747572_a_at) / Fold change /veh TMPRSS4 (11747572_a_at) / RFU HAMP (11756126_x_at) / Fold change /veh HAMP (11756126_x_at) / RFU RNFT2 (11725882_a_at) / Fold change /veh RNFT2 (11725882_a_at) / RFU NR4A2 (11747474_a_at) / Fold change /veh NR4A2 (11747474_a_at) / RFU ABCC12 (11746883_a_at) / Fold change /veh ABCC12 (11746883_a_at) / RFU TMEM136 (11760407_x_at) / Fold change /veh TMEM136 (11760407_x_at) / RFU CLDN22 /// WWC2 (11732394_at) / Fold change /veh CLDN22 /// WWC2 (11732394_at) / RFU HLA-DPB1 (11760878_x_at) / Fold change /veh HLA-DPB1 (11760878_x_at) / RFU SPINT1 (11716480_a_at) / Fold change /veh SPINT1 (11716480_a_at) / RFU GAP43 (11754022_s_at) / Fold change /veh GAP43 (11754022_s_at) / RFU A4GNT (11735810_at) / Fold change /veh A4GNT (11735810_at) / RFU PRB3 (11715151_x_at) / Fold change /veh PRB3 (11715151_x_at) / RFU TUBB4B (11761932_at) / Fold change /veh TUBB4B (11761932_at) / RFU CAPN14 (11732068_a_at) / Fold change /veh CAPN14 (11732068_a_at) / RFU TMCC2 (11721928_a_at) / Fold change /veh TMCC2 (11721928_a_at) / RFU IRGQ (11745062_a_at) / Fold change /veh IRGQ (11745062_a_at) / RFU FAM174B (11720279_a_at) / Fold change /veh FAM174B (11720279_a_at) / RFU TMPRSS4 (11748680_a_at) / Fold change /veh TMPRSS4 (11748680_a_at) / RFU FAM212B (11763350_a_at) / Fold change /veh FAM212B (11763350_a_at) / RFU PLEKHG5 (11743358_a_at) / Fold change /veh PLEKHG5 (11743358_a_at) / RFU ZSCAN30 (11745921_a_at) / Fold change /veh ZSCAN30 (11745921_a_at) / RFU CMKLR1 (11741424_a_at) / Fold change /veh CMKLR1 (11741424_a_at) / RFU LOC101060620 /// MAPK8IP1 (11723275_at) / Fold change /veh LOC101060620 /// MAPK8IP1 (11723275_at) / RFU SPTSSB (11747773_x_at) / Fold change /veh SPTSSB (11747773_x_at) / RFU PRSS12 (11739890_at) / Fold change /veh PRSS12 (11739890_at) / RFU BIN1 (11741810_x_at) / Fold change /veh BIN1 (11741810_x_at) / RFU WNT11 (11732464_a_at) / Fold change /veh WNT11 (11732464_a_at) / RFU C10orf10 (11716521_a_at) / Fold change /veh C10orf10 (11716521_a_at) / RFU C5orf56 (11738089_at) / Fold change /veh C5orf56 (11738089_at) / RFU CYB561 (11721691_x_at) / Fold change /veh CYB561 (11721691_x_at) / RFU ANKRD19P (11752326_a_at) / Fold change /veh ANKRD19P (11752326_a_at) / RFU OR2T12 /// OR2T33 /// OR2T8 (11738714_s_at) / Fold change /veh OR2T12 /// OR2T33 /// OR2T8 (11738714_s_at) / RFU VCAN (11748164_a_at) / Fold change /veh VCAN (11748164_a_at) / RFU JSRP1 (11732532_at) / Fold change /veh JSRP1 (11732532_at) / RFU KRTAP10-11 (11738290_x_at) / Fold change /veh KRTAP10-11 (11738290_x_at) / RFU MYO3A (11730013_a_at) / Fold change /veh MYO3A (11730013_a_at) / RFU EBF3 (11725865_a_at) / Fold change /veh EBF3 (11725865_a_at) / RFU CAMK2N1 (11719241_x_at) / Fold change /veh CAMK2N1 (11719241_x_at) / RFU C5orf56 (11738088_a_at) / Fold change /veh C5orf56 (11738088_a_at) / RFU OLFML3 (11715873_a_at) / Fold change /veh OLFML3 (11715873_a_at) / RFU LOC100653217 /// NTM (11731650_a_at) / Fold change /veh LOC100653217 /// NTM (11731650_a_at) / RFU MAPK11 (11762145_a_at) / Fold change /veh MAPK11 (11762145_a_at) / RFU FIZ1 (11724087_x_at) / Fold change /veh FIZ1 (11724087_x_at) / RFU OASL (11726364_x_at) / Fold change /veh OASL (11726364_x_at) / RFU SOX15 (11748057_x_at) / Fold change /veh SOX15 (11748057_x_at) / RFU CD79A (11719716_a_at) / Fold change /veh CD79A (11719716_a_at) / RFU HIST1H1D (11736915_at) / Fold change /veh HIST1H1D (11736915_at) / RFU CASKIN2 (11723855_a_at) / Fold change /veh CASKIN2 (11723855_a_at) / RFU LOC730098 (11760151_x_at) / Fold change /veh LOC730098 (11760151_x_at) / RFU OR4N2 (11742367_at) / Fold change /veh OR4N2 (11742367_at) / RFU PRRT2 (11749266_a_at) / Fold change /veh PRRT2 (11749266_a_at) / RFU SNX32 (11753110_a_at) / Fold change /veh SNX32 (11753110_a_at) / RFU CDHR5 (11726645_a_at) / Fold change /veh CDHR5 (11726645_a_at) / RFU RCAN1 (11760418_a_at) / Fold change /veh RCAN1 (11760418_a_at) / RFU FAM167A (11723789_a_at) / Fold change /veh FAM167A (11723789_a_at) / RFU FAM26E (11764081_at) / Fold change /veh FAM26E (11764081_at) / RFU ISYNA1 (11749810_s_at) / Fold change /veh ISYNA1 (11749810_s_at) / RFU ACY1 (11761880_at) / Fold change /veh ACY1 (11761880_at) / RFU 11764098_at / Fold change /veh 11764098_at / RFU SAMD14 (11745864_x_at) / Fold change /veh SAMD14 (11745864_x_at) / RFU NPB (11741838_a_at) / Fold change /veh NPB (11741838_a_at) / RFU TMPRSS6 (11731388_a_at) / Fold change /veh TMPRSS6 (11731388_a_at) / RFU KRTAP10-2 (11738614_at) / Fold change /veh KRTAP10-2 (11738614_at) / RFU ARHGAP8 /// PRR5-ARHGAP8 (11727945_x_at) / Fold change /veh ARHGAP8 /// PRR5-ARHGAP8 (11727945_x_at) / RFU KRTAP5-7 /// NADSYN1 (11734609_at) / Fold change /veh KRTAP5-7 /// NADSYN1 (11734609_at) / RFU RASL12 (11751679_a_at) / Fold change /veh RASL12 (11751679_a_at) / RFU CDKN2B (11736163_a_at) / Fold change /veh CDKN2B (11736163_a_at) / RFU PRF1 (11729649_at) / Fold change /veh PRF1 (11729649_at) / RFU, ZNF638 /// ZNF638-IT1 / Fold change vs veh, ZNF638 /// ZNF638-IT1 / RFU, PANK3 / Fold change vs veh, PANK3 / RFU, SH3YL1 / Fold change vs veh, SH3YL1 / RFU, ZEB2 / Fold change vs veh, ZEB2 / RFU, NRIP1 / Fold change vs veh, NRIP1 / RFU, PTTG1IP / Fold change vs veh, PTTG1IP / RFU, CAPN2 / Fold change vs veh, CAPN2 / RFU, MED14 / Fold change vs veh, MED14 / RFU, SNORA58 / Fold change vs veh, SNORA58 / RFU, C1orf63 / Fold change vs veh, C1orf63 / RFU, LRRFIP1 / Fold change vs veh, LRRFIP1 / RFU, NDUFAF7 / Fold change vs veh, NDUFAF7 / RFU, SLC12A2 / Fold change vs veh, SLC12A2 / RFU, IBTK / Fold change vs veh, IBTK / RFU, ESF1 / Fold change vs veh, ESF1 / Fold change vs veh, TMEM50B / RFU, TAOK1 / Fold change vs veh, TAOK1 / RFU, ACBD3 / Fold change vs veh, ACBD3 / RFU, TMA16 / Fold change vs veh, TMA16 / RFU, RWDD3 / Fold change vs veh, RWDD3 / RFU, BCAT1 / Fold change vs veh, BCAT1 / RFU, EDEM3 / Fold change vs veh, EDEM3 / RFU, TMEM33 / Fold change vs veh, TMEM33 / RFU, WDR75 / Fold change vs veh, WDR75 / RFU, AHCTF1 / Fold change vs veh, AHCTF1 / RFU, TFRC / Fold change vs veh, TFRC / RFU, ZDHHC17 / Fold change vs veh, ZDHHC17 / RFU, NOM1 / Fold change vs veh, NOM1 / RFU, ARL8B / Fold change vs veh, ARL8B / RFU, ZBTB11 / Fold change vs veh, ZBTB11 / RFU, TAMM41 / Fold change vs veh, TAMM41 / RFU, KIAA1704 /// LOC100996395 / Fold change vs veh, KIAA1704 /// LOC100996395 / RFU, ING1 / Fold change vs veh, ING1 / RFU, TRMT61B / Fold change vs veh, TRMT61B / RFU, FUBP3 / Fold change vs veh, FUBP3 / RFU, TP53 / Fold change vs veh, TP53 / RFU, TNKS2 / Fold change vs veh, TNKS2 / RFU, ZFP14 / Fold change vs veh, ZFP14 / RFU, ACTR2 / Fold change vs veh, ACTR2 / RFU, PPP3R1 / Fold change vs veh, PPP3R1 / RFU, PIK3R1 / Fold change vs veh, PIK3R1 / RFU, HNRNPA1 / Fold change vs veh, HNRNPA1 / RFU, RNF170 / Fold change vs veh, RNF170 / RFU, ZNF28 / Fold change vs veh, ZNF28 / RFU, RNGTT / Fold change vs veh, RNGTT / RFU, OGT / Fold change vs veh, OGT / RFU, BRD1 / Fold change vs veh, BRD1 / RFU, MARS / Fold change vs veh, MARS / RFU, ZNF655 / Fold change vs veh, ZNF655 / RFU, FAHD1 / Fold change vs veh, FAHD1 / RFU, BDP1 / Fold change vs veh, BDP1 / RFU, LRRCC1 / Fold change vs veh, LRRCC1 / RFU, ARID1A / Fold change vs veh, ARID1A / RFU, ZNF146 / Fold change vs veh, ZNF146 / RFU, ZNF330 / Fold change vs veh, ZNF330 / RFU, GPN3 / Fold change vs veh, GPN3 / RFU, C9orf123 / Fold change vs veh, C9orf123 / RFU, N4BP2L2 / Fold change vs veh, N4BP2L2 / RFU, ARFIP1 / Fold change vs veh, ARFIP1 / RFU, FAM179B / Fold change vs veh, FAM179B / RFU, BCL10 / Fold change vs veh, BCL10 / RFU, UHRF1BP1L / Fold change vs veh, UHRF1BP1L / RFU, BET1 / Fold change vs veh, BET1 / RFU, CNOT2 / Fold change vs veh, CNOT2 / RFU, ZNF268 / Fold change vs veh, ZNF268 / Fold change vs veh, ZNF507 / RFU, DGCR2 / Fold change vs veh, DGCR2 / RFU, WDSUB1 / Fold change vs veh, WDSUB1 / Fold change vs veh, HSP90B1 /// MIR3652 / RFU, ADSS / Fold change vs veh, ADSS / RFU, GK / Fold change vs veh, GK / RFU, ZNF148 / Fold change vs veh, ZNF148 / RFU, TAF9 / Fold change vs veh, TAF9 / RFU, SLC1A5 / Fold change vs veh, SLC1A5 / RFU, SLMO2 / Fold change vs veh, SLMO2 / RFU, ABCC4 / Fold change vs veh, ABCC4 / RFU, LOC101060439 /// RAP1B / Fold change vs veh, LOC101060439 /// RAP1B / RFU, RFX7 / Fold change vs veh, RFX7 / RFU, GTPBP10 / Fold change vs veh, GTPBP10 / RFU, CNEP1R1 / Fold change vs veh, CNEP1R1 / RFU, BIVM-ERCC5 /// ERCC5 / Fold change vs veh, BIVM-ERCC5 /// ERCC5 / RFU, ILF3 / Fold change vs veh, ILF3 / RFU 11762660_at / Fold change /veh 11762660_at / RFU VCAN (11757783_s_at) / Fold change /veh VCAN (11757783_s_at) / RFU DDX43 (11728927_at) / Fold change /veh DDX43 (11728927_at) / RFU KRT8 (11758188_x_at) / Fold change /veh KRT8 (11758188_x_at) / RFU NKD1 (11759106_at) / Fold change /veh NKD1 (11759106_at) / RFU SRD5A1 (11742802_a_at) / Fold change /veh SRD5A1 (11742802_a_at) / RFU TPSAB1 /// TPSB2 (11721975_s_at) / Fold change /veh TPSAB1 /// TPSB2 (11721975_s_at) / RFU GSTM3 (11746129_a_at) / Fold change /veh GSTM3 (11746129_a_at) / RFU IL23R (11737362_x_at) / Fold change /veh IL23R (11737362_x_at) / RFU TMEM51 (11727254_a_at) / Fold change /veh TMEM51 (11727254_a_at) / RFU PIWIL2 (11732686_x_at) / Fold change /veh PIWIL2 (11732686_x_at) / RFU ORM1 (11744905_x_at) / Fold change /veh ORM1 (11744905_x_at) / RFU CCDC152 (11743942_at) / Fold change /veh CCDC152 (11743942_at) / RFU ECM1 (11717891_a_at) / Fold change /veh ECM1 (11717891_a_at) / RFU IL23R (11748794_a_at) / Fold change /veh IL23R (11748794_a_at) / RFU TNFAIP8L3 (11732012_x_at) / Fold change /veh TNFAIP8L3 (11732012_x_at) / RFU MBOAT4 (11741988_at) / Fold change /veh MBOAT4 (11741988_at) / RFU 11764193_at / Fold change /veh 11764193_at / RFU TMEM53 (11763286_at) / Fold change /veh TMEM53 (11763286_at) / RFU MAGEB2 (11727129_at) / Fold change /veh MAGEB2 (11727129_at) / RFU TMEM200A (11744735_a_at) / Fold change /veh TMEM200A (11744735_a_at) / RFU CCDC152 (11751479_a_at) / Fold change /veh CCDC152 (11751479_a_at) / RFU FAM211A (11726209_a_at) / Fold change /veh FAM211A (11726209_a_at) / RFU RGS16 (11746705_a_at) / Fold change /veh RGS16 (11746705_a_at) / RFU VCAN (11755009_s_at) / Fold change /veh VCAN (11755009_s_at) / RFU RHOB (11743442_s_at) / Fold change /veh RHOB (11743442_s_at) / RFU RGS16 (11720943_a_at) / Fold change /veh RGS16 (11720943_a_at) / RFU RGS16 (11720944_at) / Fold change /veh RGS16 (11720944_at) / RFU, VPS4B / Fold change vs veh, VPS4B / RFU, CREB1 / Fold change vs veh, CREB1 / RFU, DNAJC13 / Fold change vs veh, DNAJC13 / RFU, GNAQ / Fold change vs veh, GNAQ / RFU, CDK5R1 / Fold change vs veh, CDK5R1 / RFU, ZRANB3 / Fold change vs veh, ZRANB3 / RFU, CUL4A / Fold change vs veh, CUL4A / RFU, CCNY / Fold change vs veh, CCNY / RFU, UFL1 / Fold change vs veh, UFL1 / RFU, COG3 / Fold change vs veh, COG3 / RFU, DIAPH2 / Fold change vs veh, DIAPH2 / RFU, SKA2 / Fold change vs veh, SKA2 / RFU, AFF3 / Fold change vs veh, AFF3 / RFU, LMF1 / Fold change vs veh, LMF1 / RFU, IPO11 / Fold change vs veh, IPO11 / RFU, DFFB / Fold change vs veh, DFFB / RFU, FOXP1 / Fold change vs veh, FOXP1 / RFU, CARD8 / Fold change vs veh, CARD8 / RFU, STRN3 / Fold change vs veh, STRN3 / RFU, ADK / Fold change vs veh, ADK / RFU, RASSF2 / Fold change vs veh, RASSF2 / RFU, WIPF1 / Fold change vs veh, WIPF1 / RFU, LARP1B / Fold change vs veh, LARP1B / RFU, RASA1 / Fold change vs veh, RASA1 / RFU, RB1 / Fold change vs veh, RB1 / RFU, PPFIA1 / Fold change vs veh, PPFIA1 / RFU, MAT2A / Fold change vs veh, MAT2A / RFU, CCT5 / Fold change vs veh, CCT5 / RFU, WDR92 / Fold change vs veh, WDR92 / RFU, CUX1 / Fold change vs veh, CUX1 / RFU, TTC7A / Fold change vs veh, TTC7A / RFU, TMEM135 / Fold change vs veh, TMEM135 / RFU, DEPTOR / Fold change vs veh, DEPTOR / RFU, CPM / Fold change vs veh, CPM / RFU, DNAJB6 / Fold change vs veh, DNAJB6 / RFU, CACNA2D3 / Fold change vs veh, CACNA2D3 / RFU, DTX4 / Fold change vs veh, DTX4 / RFU, TFCP2 / Fold change vs veh, TFCP2 / RFU, GMCL1 /// GMCL1P1 / Fold change vs veh, GMCL1 /// GMCL1P1 / RFU, AEBP2 / Fold change vs veh, AEBP2 / RFU, SNHG1 /// SNORD22 /// SNORD25 /// SNORD26 /// SNORD27 /// SNORD28 /// SNORD29 /// SNORD31 / Fold change vs veh, SNHG1 /// SNORD22 /// SNORD25 /// SNORD26 /// SNORD27 /// SNORD28 /// SNORD29 /// SNORD31 / Fold change (Aza/veh), C12orf56 (ProbeSet 11735607_a_at) / Fold change (ACY-1035/veh), C12orf56 (ProbeSet 11735607_a_at) / Fold change (Aza/veh), FGFR1OP (ProbeSet 11751329_s_at) / Fold change (ACY-1035/veh), FGFR1OP (ProbeSet 11751329_s_at) / Fold change (Aza/veh), VPS36 (ProbeSet 11739960_a_at) / Fold change (ACY-1035/veh), VPS36 (ProbeSet 11739960_a_at) / RFU SYPL1 (11715823_x_at) / Fold change /veh SYPL1 (11715823_x_at) / RFU IGFBP7 (11715501_s_at) / Fold change /veh IGFBP7 (11715501_s_at) / RFU REEP3 (11722064_at) / Fold change /veh REEP3 (11722064_at) / RFU IGLL1 (11728026_x_at) / Fold change /veh IGLL1 (11728026_x_at): dose or concentration left out as unconfirmed
Settings: ProbeSet 11739263_x_at; LIST D

Nc1ncn([C@@H]2O[C@H](CO)[C@@H](O)[C@H]2O)c(=O)n1 [azacitidine]
Fold change vs veh, VPS4B: 0.80
